# Test: storage stability of solid forms of relugolix
# Format: physicochemical
stability (found stable; in words) (no storage conditions or duration printed),stability of the crystalline form on storage (2-8° C.),stability of the crystalline form on storage (25° C. and 60% RH (relative humidity)),stability of the crystalline form on storage (40° C. and 75% RH (relative humidity)),SMILES
stable,,,,CONC(=O)Nc1ccc(-c2sc3c(c2CN(C)C)c(=O)n(-c2ccc(OC)nn2)c(=O)n3Cc2c(F)cccc2F)cc1 [amorphous relugolix]
,stable for at least three months,stable for at least three months,stable for at least three months,CONC(=O)Nc1ccc(-c2sc3c(c2CN(C)C)c(=O)n(-c2ccc(OC)nn2)c(=O)n3Cc2c(F)cccc2F)cc1 [crystalline form R1]

# — US20220220123A1, “AMORPHOUS AND CRYSTALLINE FORMS OF RELUGOLIX” (DR. REDDY'S LABORATORIES LIMITED, priority 2019, published 2022)
